From paper PMC8698377, “In Vitro Hepatic Assessment of Cineole and Its Derivatives in Common Brushtail Possums (Trichosurus vulpecula) and Rodents” (Biology, 2021)

Assays:
[1] = test system: CYP3A; assay: CYP3A catalytic activity (erythromycin-N-demethylation), possum hepatic microsomes; type: in vitro ADME, possum (Trichosurus vulpecula); conditions: for activity at 30 min, 12.5 µM / activity at 30 min, 25 µM: possum (Trichosurus vulpecula), liver microsomes, pH 7.4, probe erythromycin, read-out: CYP3A catalytic activity, % of Control
Experimental: (§1) Microsomal preparation was as previously outlined. Individual livers were placed in beakers containing 1.15% KCl. All the procedures were carried out at 0–4 °C. The liver samples were minced and homogenised in buffer A (0.1 M Tris, 0.1 M potassium chloride, 1 mM EDTA, and 20 μM butylated hydroxytoluene, at pH = 7.4) using the Teflon-glass homogeniser (5–6 vertical passes). The samples were centrifuged for 20 min at 10,000× g. The supernatant was then transferred into another set of centrifuge tubes and spun for 60 min at 100,000× g. The pellet was resuspended in Buffer B (0.1 M potassium pyrophosphate, 1 mM EDTA, and 20 μM butylated hydroxytoluene, at pH = 7.4), homogenised and recentrifuged for 60 min at 100,000× g. Finally, the pellet was homogenised in 1–2 mL of Buffer C (10 mM Tris-HCl, 1 mM EDTA, and 4% glycerol (v/v)) and stored at […] until used. The protein concentration of the microsomes was determined using the Bicinchoninic acid (BCA) method.
(§2) CYP3A catalytic activity was determined using the erythromycin-N-demethylation activity assay as described previously. The reaction mixture (final volume of 1 mL and final protein concentration of 1 mg) contained 500 µL of microsomes in 0.1 M phosphate buffer (pH = 7.4), 400 µL of erythromycin buffer (0.45 mM), and 50 µL of the test compound was pre-warmed at 37 °C for 2 min. The reaction was initiated with 50 µL of 2.5 mM […] and incubated at 37 °C for 30 min (optimised incubation time). The reaction was stopped with the addition of 330 µL of 15% zinc sulphate. Tubes were vortexed and left for 5 min (at room temperature) and then 330 µL of saturated barium hydroxide was added. Tubes were further vortexed and left for 5 min (at room temperature). Tubes were then centrifuged at 1800 g for 10 min. To 830 µL of the supernatant, 330 µL of Nash reagent (30% (w/v) ammonium acetate, 0.4% (v/v) acetyl acetone) was added and further incubated at 60 °C for 30 min. The blank tube contained 330 µL of Nash reagent and 830 µL of Milli-Q-water. The tubes were centrifuged again at 1800× g for 10 min and the absorbance was read at 415 nm. Results presented are the mean ± SEM of 3 independent experiments conducted in duplicate.

[2] = test system: CYP3A; assay: CYP3A catalytic activity (erythromycin-N-demethylation), mouse hepatic microsomes; type: in vitro ADME; conditions: for activity at 30 min, 12.5 µM / activity at 30 min, 25 µM: liver microsomes, pH 7.4, probe erythromycin, read-out: CYP3A catalytic activity, % of Control
Experimental: as §1, §2

[3] = test system: UGT; assay: p-nitrophenol glucuronidation, possum hepatic microsomes; type: in vitro ADME, possum (Trichosurus vulpecula)
Experimental: as §1
(§3) The rate of p-nitrophenol glucuronidation was determined as previously reported. In short, the incubation mixture (500 µL in total) contained; 100 µL of 1 mg/mL microsomes, 50 µL of 1 M Tris-HCl (pH = 7.4), 20 µL of 0.25% (v/v) Triton-X 100, 50 µL of 50 mM MgCl2, 130 µL of double distilled water, 50 µL of 5 mM p-nitrophenol, 50 µL of the test compound, and 50 µL of uridine 5′-diphosphoglucuronic acid trisodium salt (UDPGA). The blank tubes had all components except UDPGA and microsomes; instead, 150 µL of 0.1 M phosphate buffer was added to equal the volume as the reaction mixture. The reaction mixture and the blank were incubated at 37 °C for 2 min. Then, 50 µL of 30 mM UDPGA was added to initiate the reaction which proceeded at 37 °C for 30 min (optimised incubation time). The reaction was stopped using 1 mL of 5% trichloroacetic acid (TCA). The tubes were centrifuged at 1800 g for 10 min and then 1 mL of supernatant was added to 250 µL of 2 M sodium hydroxide (NaOH). The absorbance was read at 405 nm. The sample reading was subtracted from the blank absorbance and divided by the extinction coefficient of p-nitrophenol ([…]) and the light path of the spectrophotometer (1 cm). The glucuronidation activities are expressed in µmol/mg/min and are the mean ± SEM of 3 independent experiments conducted in duplicate.

[4] = test system: UGT; assay: p-nitrophenol glucuronidation, rat hepatic microsomes; type: in vitro ADME
Experimental: as §1, §3

[5] = test system: CYP3A; assay: CYP3A catalytic activity (erythromycin-N-demethylation), rat hepatic microsomes; type: in vitro ADME; conditions: for activity at 30 min, 12.5 µM / activity at 30 min, 25 µM: liver microsomes, pH 7.4, probe erythromycin, read-out: CYP3A catalytic activity, % of Control
Experimental: as §1, §2

[6] = test system: UGT; assay: p-nitrophenol glucuronidation, mouse hepatic microsomes; type: in vitro ADME
Experimental: as §1, §3

SMILES	CYP3A catalytic activity ([1]; 12.5 µM)	CYP3A catalytic activity ([1]; 25 µM)	activity at 30 min, 12.5 µM ([1]; 12.5 µM)	activity at 30 min, 25 µM ([1]; 25 µM)	CYP3A catalytic activity ([2]; 12.5 µM)	CYP3A catalytic activity ([2]; 25 µM)	p-nitrophenol glucuronidation activity ([3]; 12.5 µM)	p-nitrophenol glucuronidation, % of Control ([3]; 12.5 µM)	p-nitrophenol glucuronidation activity ([3]; 25 µM)	p-nitrophenol glucuronidation, % of Control ([3]; 25 µM)	p-nitrophenol glucuronidation activity ([4]; 12.5 µM)	p-nitrophenol glucuronidation, % of Control ([4]; 12.5 µM)	p-nitrophenol glucuronidation activity ([4]; 25 µM)	p-nitrophenol glucuronidation, % of Control ([4]; 25 µM)	CYP3A catalytic activity ([5]; 12.5 µM)	CYP3A catalytic activity ([5]; 25 µM)	p-nitrophenol glucuronidation activity ([6]; 12.5 µM)	p-nitrophenol glucuronidation, % of Control ([6]; 12.5 µM)	p-nitrophenol glucuronidation activity ([6]; 25 µM)	p-nitrophenol glucuronidation, % of Control ([6]; 25 µM)	further results
CC1(O)CCC(C(C)(C)O)CC1 (stereo in doubt) [Trans-terpin, trans-terpin]	0.41 ± 0.02 nmol/mg/min	0.40 ± 0.03 nmol/mg/min	106 ± 1.42%	103 ± 6.11%	0.71 ± 0.03 nmol/mg/min	0.70 ± 0.03 nmol/mg/min	3.90 ± 0.34 µmol/mg/min	99.53 ± 0.84%	3.91 ± 0.34 µmol/mg/min	99.77 ± 0.60%	2.87 ± 0.22 µmol/mg/min	104.14 ± 9.44%	2.50 ± 0.10 µmol/mg/min	90.51 ± 3.63%	0.59 ± 0.04 nmol/mg/min	0.60 ± 0.06 nmol/mg/min	2.44 ± 0.06 µmol/mg/min	101.67 ± 0.74%	2.33 ± 0.07 µmol/mg/min	97.15 ± 1.80%	activity at 30 min, 12.5 µM ([2]; 12.5 µM): 101 ± 2.7%; activity at 30 min, 25 µM ([2]; 25 µM): 99.64 ± 0.93%; activity at 30 min, 12.5 µM ([5]; 12.5 µM): 98.3 ± 3.1%; activity at 30 min, 25 µM ([5]; 25 µM): 99.3 ± 1%
CC1(C)CCCCC1 [1,1-dimethylcyclohexane]	0.38 ± 0.01 nmol/mg/min	0.40 ± 0.02 nmol/mg/min	98 ± 1.28%	101.8 ± 0.61%	0.73 ± 0.03 nmol/mg/min	0.79 ± 0.04 nmol/mg/min	4.08 ± 0.18 µmol/mg/min	100.68 ± 0.60%	4.03 ± 0.23 µmol/mg/min	99.32 ± 0.90%	2.59 ± 0.08 µmol/mg/min	100.53 ± 2.39%	2.58 ± 0.05 µmol/mg/min	100.29 ± 3.55%	0.61 ± 0.07 nmol/mg/min	0.61 ± 0.10 nmol/mg/min	2.48 ± 0.13 µmol/mg/min	105.97 ± 2.23%	2.19 ± 0.09 µmol/mg/min	93.67 ± 1.67%	activity at 30 min, 12.5 µM ([2]; 12.5 µM): 98.93 ± 0.94%; activity at 30 min, 25 µM ([2]; 25 µM): 107 ± 1.13%; activity at 30 min, 12.5 µM ([5]; 12.5 µM): 103 ± 7.68%; activity at 30 min, 25 µM ([5]; 25 µM): 100 ± 1.66%
CCCCCC12CCC(C(=O)O)(CC1)CC2 [4-pentylbicyclo[2.2.2]octane-1-carboxylic acid]	0.40 ± 0.05 nmol/mg/min	0.40 ± 0.02 nmol/mg/min	109 ± 3.58%	111 ± 7.26%	0.61 ± 0.04 nmol/mg/min	0.67 ± 0.01 nmol/mg/min	3.80 ± 0.27 µmol/mg/min	98.44 ± 1.05%	3.96 ± 0.17 µmol/mg/min	102.71 ± 1.91%	2.88 ± 0.13 µmol/mg/min	103.95 ± 3.65%	2.82 ± 0.07 µmol/mg/min	101.89 ± 3.31%	0.56 ± 0.05 nmol/mg/min	0.55 ± 0.06 nmol/mg/min	2.41 ± 0.06 µmol/mg/min	98.73 ± 3.51%	2.21 ± 0.14 µmol/mg/min	90.15 ± 2.18 %	activity at 30 min, 12.5 µM ([2]; 12.5 µM): 96.3 ± 1.91%; activity at 30 min, 25 µM ([2]; 25 µM): 106 ± 2.97%; activity at 30 min, 12.5 µM ([5]; 12.5 µM): 105 ± 3.3%; activity at 30 min, 25 µM ([5]; 25 µM): 102 ± 2.42%
O=C(O)C1C2C=CC(C2)C1C(=O)O (stereo not drawn) [5-norbornen-2-endo-3-exo-dicarboxylic acid]	0.39 ± 0.03 nmol/mg/min	0.38 ± 0.02 nmol/mg/min			0.73 ± 0.04 nmol/mg/min	0.77 ± 0.03 nmol/mg/min	3.90 ± 0.23 µmol/mg/min	100.53 ± 2.09%	3.91 ± 0.20 µmol/mg/min	100.86 ± 1.90%	2.85 ± 0.16 µmol/mg/min	96.42 ± 1.23%	2.92 ± 0.19 µmol/mg/min	98.52 ± 2.14%	0.65 ± 0.10 nmol/mg/min	0.64 ± 0.09 nmol/mg/min	2.23 ± 0.09 µmol/mg/min	107.16 ± 4.97%	2.23 ± 0.10 µmol/mg/min	107.42 ± 3.63%	CYP3A catalytic activity, % of Control ([1]; 12.5 µM): 98.90 ± 0.73%; CYP3A catalytic activity, % of Control ([1]; 25 µM): 95.23 ± 3.85%; CYP3A catalytic activity, % of Control ([2]; 12.5 µM): 96.48 ± 0.72%; CYP3A catalytic activity, % of Control ([2]; 25 µM): 101.88 ± 0.75%; CYP3A catalytic activity, % of Control ([5]; 12.5 µM): 107.52 ± 3.84%; CYP3A catalytic activity, % of Control ([5]; 25 µM): 105.30 ± 2.08%
O=C(O)C1CC2C=CC1O2 (stereo not shown) [7-oxabicyclo[2.2.1]-hept-5-ene-2-carboxylic acid]	0.41 ± 0.02 nmol/mg/min	0.40 ± 0.02 nmol/mg/min	106 ± 7.47%	103 ± 1.09%	0.67 ± 0.01 nmol/mg/min	0.66 ± 0.03 nmol/mg/min	4.02 ± 0.09 µmol/mg/min	99.13 ± 1.29%	3.99 ± 0.09 µmol/mg/min	98.49 ± 0.83%	2.87 ± 0.07 µmol/mg/min	102.50 ± 2.98%	2.75 ± 0.06 µmol/mg/min	98.20 ± 1.42%	0.48 ± 0.06 nmol/mg/min	0.51 ± 0.04 nmol/mg/min	3.46 ± 0.04 µmol/mg/min	101.00 ± 0.64%	3.26 ± 0.09 µmol/mg/min	95.53 ± 4.50%	activity at 30 min, 12.5 µM ([2]; 12.5 µM): 103 ± 2.77%; activity at 30 min, 25 µM ([2]; 25 µM): 103 ± 3.52%; activity at 30 min, 12.5 µM ([5]; 12.5 µM): 107 ± 5.87%; activity at 30 min, 25 µM ([5]; 25 µM): 114 ± 3.17%
OC(Cn1cncn1)(Cn1cncn1)c1ccc(F)cc1F [fluconazole, reference compound]																					decrease of hepatic p-nitrophenol glucuronidation ([6]; 2.5 mM, positive control): 20 percent control
